Experiments:
MDCK cells [1] = assay: Photostick of MDCK cells (violet light crosslinking, ACCUTASE development); assay type: cell-based, Canine
MDCK cells [2] = assay type: cell-based; settings: 4 μM, 407 nm light 825 J/cm^2
MDCK cells [3] = assay: Cell entry by high magnification fluorescence imaging; assay type: cell-based, Canine; settings: 4 μM, fluorescence localized to the cell membrane
rat hippocampal neurons = assay: Photostick of a single neuron chosen by Optopatch firing pattern; assay type: cell-based; settings: 15 μM, 407 nm light 2200 J/cm^2, ACCUTASE 6 min 37° C.

CC[N+]1=C(/C=C/C=C2/N(CCCCCC(=O)NCCNC(=O)CCSSCCNC(=O)C(CCCCNC(=O)CCCCC3SCC4NC(=O)NC43)NC(=O)c3ccc(N=[N+]=N)cc3)c3ccc(S(=O)(=O)O)cc3C2(C)C)C(C)(C)c2cc(S(=O)(=O)O)ccc21 (stereo not drawn) [Cy3-SBED]
Cells in the dark region removed (MDCK cells [1]): 99.96% | Cells within the illuminated region retained (photostuck cells remained) (MDCK cells [1]): 98.7% | Non-photostuck cells remained (MDCK cells [1]): 0.04% | Cell doubling time post-photostick (MDCK cells [2]): 34 h | Entry into cells (intracellular fluorescence) (MDCK cells [3]): did not enter the cells | Retention of selected neuron after ACCUTASE (in words) (rat hippocampal neurons): the selected neuron remained

— patent publication US10077463B2, “Optical selection of cells” (President and Fellows of Harvard College, priority 2015, dated 2018)
